In patent publication US20200255487A1, “A Cell-Based Seeding Assay for Huntingtin Aggregation” (THE REGENTS OF THE UNIVERSITY OF CALIFORNIA, priority 2017, published 2020):

Tested on: HTT-ΔN17-46Q-GFP
Assay: cell-based HTT seeding assay (ΔN17-1E cells)
Design: species or system human
Details: for induction of intracellular HTT-ΔN17-46Q-GFP aggregation by extracellularly applied seeds: ΔN17-1E (HEK293) cells, substance applied as seed, FIG. 4
From the text: Described herein is the development of a cell-based HTT seeding assay. A DNA construct encoding Exon1 of mutant human HTT with a 46 polyQ repeat was designed (FIG. 1C). This mutant HTT was engineered to delete amino acid residues 2-16 and was fused with a green fluorescent protein (GFP) at its C-terminus, named HTT-ΔN17-46Q-GFP hereafter. The HTT-ΔN17-46Q-GFP was then cloned into a pcDNA3 vector and transfected into HEK293 cells. Clones of stably transfected cells expressing HTT-ΔN17-46Q-GFP were selected to generate individual cell lines. Expression of the transgene in the cell lines was characterized to confirm its morphology, expression level and subcellular localization. Line 1E, named ΔN17-1E cells, was selected based on it moderate transgene expression with minimal protein aggregates at the baseline. Based on this cell line, a cell-based HTT seeding assay was developed. Extracellular application of preformed HTT aggregates or biosamples from HD patients as “seeds”, to ΔN17-1E cells could induce intracellular aggregation of HTT-ΔN17-46Q-GFP proteins (FIG. 1 through FIG. 3). This seeding-induced aggregation event is similar to in vitro HTT aggregation, which preformed aggregates, or seeds, nucleates and facilitates the aggregation of HTT exon 1 monomers. Moreover, this activity is specific to utilizing aggregates of polyQ proteins since neither aggregates of β-amyloid and Tau nor biosamples from AD and PD patients could elicit HTT-ΔN17-46Q-GFP aggregation (FIG. 4). The level of induced aggregates positively correlates with the amount of recombinant seeds added. Importantly, the seedability of the biosamples also correlates with the disease stage of the patients. Currently, the assay has been optimized to be performed in a high-throughput format, making it more capable with large quantity of samples. Thus, this cell-based seeding assay could be extremely useful for detecting seedible species in the biosamples, which is shown by us to increase as the disease progressing, and thus could be used as a biomarker for HD diagnosis and clinical trials, as well as for drug discovery.

Substance | HTT-ΔN17-46Q-GFP aggregation induced by HD CSF, with overexpression (ΔN17 cells, overexpression by transit transfection, induced by HD CSF, FIG. 10) | HTT-ΔN17-46Q-GFP aggregation induced by preformed mHTT-exon1 seeds, with overexpression (ΔN17 cells, overexpression by transit transfection, induced by preformed mHTT-exon1 seeds, FIG. 10) | induction of intracellular HTT-ΔN17-46Q-GFP aggregation by extracellularly applied seeds
DNAJB6: DNAJB6 of the Hsp40 family, overexpressed in ΔN17 cells by transit transfection | dramatically reduced | dramatically reduced | 
fibrillar Aβ: fibrillar Aβ used as non-HTT seed control [reference compound] |  |  | did not elicit the aggregation
phosphorylated tau: phosphorylated tau used as non-HTT seed control [reference compound] |  |  | did not elicit the aggregation
